Results reported in patent publication US20250375471A1, “HEPARANASE INHIBITORS AND METHODS OF USE” (The Board of Regents of the University of Oklahoma, priority 2022, published 2025).
Entries after “also recorded” stand apart in the source; their conditions may differ.

Assays:
[1] = target: T1, HIT antibody complex (Platelet Factor 4 and antibody) (Homo sapiens, UniProt P02776)
T1 sequence (P02776 32-101): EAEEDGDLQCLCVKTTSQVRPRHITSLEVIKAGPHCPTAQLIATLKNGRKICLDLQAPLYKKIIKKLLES
Method: ELISA methodology was used to measure the bound antibody as measured by absorbance (at 415 nm) of the product derived from a chromogenic substrate by the enzyme on the secondary antibody probe. […] Heparin derivatives treated to reduce their anticoagulant activity (non-anticoagulant heparin (NACH) or Roneparstat (Rone)) were also tested in the HIT assay.

[2] = target: T2, Recombinant human heparanase (Homo sapiens, UniProt Q9Y251); assay: Heparanase challenge (PAGE, Stains-All detection); type: biochemical; details: heparanase 73 ng, sTestan 180 ng, 24 hours, pH 5, 30° C.
T2 construct: purchased R&D Systems; Minneapolis, MN
T2 sequence (Q9Y251 158-543 limits assumed): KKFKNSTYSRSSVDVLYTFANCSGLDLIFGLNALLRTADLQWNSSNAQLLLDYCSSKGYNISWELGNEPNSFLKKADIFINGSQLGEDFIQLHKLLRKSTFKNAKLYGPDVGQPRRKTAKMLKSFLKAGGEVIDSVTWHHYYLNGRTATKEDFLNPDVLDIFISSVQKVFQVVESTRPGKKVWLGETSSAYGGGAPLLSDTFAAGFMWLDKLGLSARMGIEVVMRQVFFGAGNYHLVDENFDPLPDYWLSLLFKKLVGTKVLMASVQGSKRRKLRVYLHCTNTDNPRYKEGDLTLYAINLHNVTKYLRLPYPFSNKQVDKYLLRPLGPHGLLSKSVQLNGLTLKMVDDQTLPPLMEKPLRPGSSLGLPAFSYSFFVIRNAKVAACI
T2 sequence (Q9Y251 36-109 limits assumed): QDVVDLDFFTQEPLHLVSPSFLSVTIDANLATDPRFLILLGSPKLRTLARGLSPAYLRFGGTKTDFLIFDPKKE
Method: The reactions were analyzed by polyacrylamide gel electrophoresis (20% gels, 1×TBE) and Stains-All detection.

[3] = target: T2, Recombinant human heparanase; assay: Gel-based heparanase enzyme inhibition assay, fluorescent synthetic O-sulfated heparosan substrate; type: biochemical
Text: (§1) A gel-based assay was used to monitor the catalytic action of recombinant human heparanase (R&D Systems; Minneapolis, MN) on polysaccharide substrates. In these assays, fluorescent chains were monitored for cleavage; the disappearance of the parental substrate band is readily noticeable. Each chain contains multiple, overlapping heparanase cut sites so there is a gradual decrease in molecular weight over time. This simple, defined assay directly monitors the digestion of polysaccharides (i.e., glycans>˜20 monosaccharide units) that approximate naturally occurring substrates.
(§2) Two types of substrates were employed to follow heparanase activity: (i) a fluorescein end-labeled synthetic O-sulfated O-linked heparosan or (ii) polyacrylamide gel electrophoretically-purified rhodamine-tagged HS. Heparanase (1.3 ng/μl final) was incubated with substrate (synthetic, 57 ng/μl; HS, 3.3 ng/μl) for various times (typically ˜0.2-5 h) in 50 mM sodium acetate, pH 5, 1 mg/ml acetylated bovine serum albumin (Promega; Madison, WI) at 30° C. Aliquots of reactions were analyzed by polyacrylamide gel electrophoresis (2 μl of reaction/lane; 20% gels, 1×TBE) and fluorescence imaging (5-120 sec exposures; ChemiDoc MP). Then the overall size range of the polysaccharide fragments was followed by Stains-All detection.

[4] = target: T2, Recombinant human heparanase; assay: Gel-based heparanase enzyme inhibition assay, natural heparan sulfate (HS) substrate; type: biochemical; details: various substrate to inhibitor ratios, 30 min time-point
Text: as §1, §2

[5] = background; cited from earlier work

Compound: Roneparstat
- HIT complex reactivity (competition with plate-bound heparin) [1]: less reactive

Compound: heparin
- HIT complex reactivity (competition with plate-bound heparin) [1]: competed well

Compound: sulfated or sulfonated testosteronan [sTestan]
- digestion/cleavage by human heparanase [2]: recalcitrant to the action of heparanase; also recorded: recalcitrant to digestion by heparanase
- fold more active on a molar basis than the heparosan substrate [3]: ≥ 100 fold
- heparanase inhibitor potency compared with generic Roneparstat ([3]; FIG. 7): similarly potent; also recorded: potent competitive inhibitor of human heparanase similar to a known heparanase inhibitor
- inhibition of heparanase cleavage of fluorescent sulfo-O-linked heparosan substrate ([3]; titration of inhibitor, 15-min time point, PAGE): inhibited the digestion of the substrate; also recorded: competitive inhibitor of heparanase
- inhibition of heparanase digestion of natural HS substrate [4]: protecting natural HS from human heparanase digestion

Compound: CC(C)CCC[C@@H](C)[C@H]1CC[C@H]2[C@@H]3CC[C@H]4C[C@@H](O[C@@H]5O[C@H](COS(=O)(=O)O)[C@@H](O[C@H]6O[C@H](COS(=O)(=O)O)[C@@H](O[C@H]7O[C@H](COS(=O)(=O)O)[C@@H](O[C@H]8O[C@H](COS(=O)(=O)O)[C@@H](OS(=O)(=O)O)[C@H](OS(=O)(=O)O)[C@H]8OS(=O)(=O)O)[C@H](OS(=O)(=O)O)[C@H]7OS(=O)(=O)O)[C@H](OS(=O)(=O)O)[C@H]6OS(=O)(=O)O)[C@H](OS(=O)(=O)O)[C@H]5OS(=O)(=O)O)CC[C@]4(C)[C@H]3CC[C@]12C [PG545]
- cell toxicity [5]: lacks significant anticoagulant activity and cell toxicity
